From patent US20060035961A1, “Cyclopentane heptan(ENE)OIC acid, 2-heteroarylalkenyl derivatives as therapeutic agents” (ALLERGAN, INC., priority 2004, published 2006)
pEC50: −log10 of the molar value.

Legend:
Format in all cases: cell-based
[1] = target: T1, hFP (Homo sapiens, UniProt P43088); assay: FLIPR calcium signal study, hFP; conditions: HEK-293(EBNA) cells expressing recombinant human receptor, read-out: HFP functional data
T1 construct: expressed in transfected cells; host or cells: HEK-293(EBNA)
Procedure: (§1) Methods for FLIPR™ Studies (a) Cell Culture
(§2) HEK-293(EBNA) cells, stably expressing one type or subtype of recombinant human prostaglandin receptors (prostaglandin receptors expressed: hDP/Gqs5; hEP1; hEP2/Gqs5; hEP3A/Gqi5; hEP4/Gqs5; hFP; hIP; hTP), were cultured in 100 mm culture dishes in high-glucose DMEM medium containing 10% fetal bovine serum, 2 mM 1-glutamine, 250 μg/ml geneticin (G418) and 200 μg/ml hygromycin B as selection markers, and 100 units/ml penicillin G, 100 μg/ml streptomycin and 0.25 μg/ml amphotericin B.
(§3) (b) Calcium Signal Studies on the FLIPR™
(§4) Cells were seeded at a density of 5×10^4 cells per well in Biocoat® Poly-D-lysine-coated black-wall, clear-bottom 96-well plates (Becton-Dickinson) and allowed to attach overnight in an incubator at 37° C. Cells were then washed two times with HBSS-HEPES buffer (Hanks Balanced Salt Solution without bicarbonate and phenol red, 20 mM HEPES, pH 7.4) using a Denley Cellwash plate washer (Labsystems). After 45 minutes of dye-loading in the dark, using the calcium-sensitive dye Fluo-4 AM at a final concentration of 2 μM, plates were washed four times with HBSS-HEPES buffer to remove excess dye leaving 100 μl in each well. Plates were re-equilibrated to 37° C. for a few minutes.
(§5) Cells were excited with an Argon laser at 488 nm, and emission was measured through a 510-570 nm bandwidth emission filter (FLIPR™, Molecular Devices, Sunnyvale, Calif.). Drug solution was added in a 50 μl volume to each well to give the desired final concentration. The peak increase in fluorescence intensity was recorded for each well. On each plate, four wells each served as negative (HBSS-HEPES buffer) and positive controls (standard agonists: BW245C (hDP); PGE2 (hEP1; hEP2/Gqs5; hEP3A/Gqi5; hEP4/Gqs5); PGF2, (hFP); carbacyclin (hIP); U-46619 (hTP), depending on receptor). The peak fluorescence change in each drug-containing well was then expressed relative to the controls.
(§6) Compounds were tested in a high-throughput (HTS) or concentration-response (CoRe) format. In the HTS format, forty-four compounds per plate were examined in duplicates at a concentration of 10^−5 M. To generate concentration-response curves, four compounds per plate were tested in duplicates in a concentration range between 10^−5 and 10^−11 M. The duplicate values were averaged. In either, HTS or CoRe format each compound was tested on at least 3 separate plates using cells from different passages to give an n≧3.

[2] = target: T2, hTP (Homo sapiens, UniProt P21731); assay: FLIPR calcium signal study, hTP; conditions: HEK-293(EBNA) cells expressing recombinant human receptor, read-out: HTP functional data
T2 construct: expressed in transfected cells; host or cells: HEK-293(EBNA)
T2 sequence (P21731 1-343): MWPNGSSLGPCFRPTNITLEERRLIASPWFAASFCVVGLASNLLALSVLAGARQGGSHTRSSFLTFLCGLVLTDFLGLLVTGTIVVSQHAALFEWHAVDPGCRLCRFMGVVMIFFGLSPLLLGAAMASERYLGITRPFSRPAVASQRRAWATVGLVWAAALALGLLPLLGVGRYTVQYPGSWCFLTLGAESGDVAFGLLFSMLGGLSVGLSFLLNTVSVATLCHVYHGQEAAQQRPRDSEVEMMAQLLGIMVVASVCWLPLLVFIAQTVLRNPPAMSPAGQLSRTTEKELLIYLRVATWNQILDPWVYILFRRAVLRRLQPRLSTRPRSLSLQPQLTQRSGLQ
Procedure: as §1, §2, §3, §4, §5, §6

[3] = target: T3, hIP (Homo sapiens, UniProt P43119); assay: FLIPR calcium signal study, hIP; conditions: HEK-293(EBNA) cells expressing recombinant human receptor, read-out: HIP functional data
T3 construct: expressed in transfected cells; host or cells: HEK-293(EBNA)
Procedure: as §1, §2, §3, §4, §5
Compounds were tested in a high-throughput (HTS) or concentration-response (CoRe) format. […]

[4] = target: T4, hEP4/Gqs5 (Homo sapiens, UniProt P35408); assay: FLIPR calcium signal study, hEP4/Gqs5; conditions: HEK-293(EBNA) cells expressing recombinant human receptor, read-out: HEP4 functional data
T4 construct: expressed in transfected cells; host or cells: HEK-293(EBNA)
Procedure: as §1, §2, §3, §4, §5, §6

[5] = target: T5, hEP3A/Gqi5 (Homo sapiens, UniProt P43115); assay: FLIPR calcium signal study, hEP3A/Gqi5; conditions: HEK-293(EBNA) cells expressing recombinant human receptor, read-out: HEP3A functional data
T5 construct: expressed in transfected cells; host or cells: HEK-293(EBNA)
T5 sequence (P43115 1-390): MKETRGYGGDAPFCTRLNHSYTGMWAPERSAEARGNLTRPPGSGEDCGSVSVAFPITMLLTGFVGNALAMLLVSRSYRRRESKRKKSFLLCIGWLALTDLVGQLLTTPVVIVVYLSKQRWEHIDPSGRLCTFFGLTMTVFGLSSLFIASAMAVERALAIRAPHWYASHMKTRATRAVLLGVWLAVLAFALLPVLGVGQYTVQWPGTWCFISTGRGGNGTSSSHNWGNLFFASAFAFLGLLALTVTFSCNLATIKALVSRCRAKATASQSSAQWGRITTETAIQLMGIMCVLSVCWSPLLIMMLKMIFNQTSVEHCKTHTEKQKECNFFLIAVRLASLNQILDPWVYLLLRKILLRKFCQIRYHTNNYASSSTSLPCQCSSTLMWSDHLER
Procedure: as §1, §2, §3
Cells were seeded at a density of 5×10^4 cells per well in Biocoat® Poly-D-lysine-coated black-wall, clear-bottom 96-well plates (Becton-Dickinson) and allowed to attach overnight in an incubator at 37° C. Cells were then washed two times with HBSS-HEPES buffer (Hanks Balanced Salt Solution without bicarbonate and phenol red, 20 mM HEPES, pH 7.4) using a Denley Cellwash plate washer (Labsystems). […]
Cells were excited with an Argon laser at 488 nm, and emission was measured through a 510-570 nm bandwidth emission filter (FLIPR™, Molecular Devices, Sunnyvale, Calif.). […] The peak increase in fluorescence intensity was recorded for each well. […] The peak fluorescence change in each drug-containing well was then expressed relative to the controls. […]

T3 sequence (P43119 whole entry): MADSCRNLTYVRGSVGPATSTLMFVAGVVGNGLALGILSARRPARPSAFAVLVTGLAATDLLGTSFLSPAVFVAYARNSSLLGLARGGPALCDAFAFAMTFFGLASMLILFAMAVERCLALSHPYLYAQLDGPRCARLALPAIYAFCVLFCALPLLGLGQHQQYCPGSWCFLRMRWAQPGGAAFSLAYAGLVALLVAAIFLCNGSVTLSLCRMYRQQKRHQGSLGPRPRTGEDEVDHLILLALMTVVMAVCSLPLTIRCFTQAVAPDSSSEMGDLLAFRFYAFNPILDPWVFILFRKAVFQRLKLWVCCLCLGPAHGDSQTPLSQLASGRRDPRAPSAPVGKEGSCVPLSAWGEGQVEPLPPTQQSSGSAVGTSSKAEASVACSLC
T4 sequence (P35408 whole entry): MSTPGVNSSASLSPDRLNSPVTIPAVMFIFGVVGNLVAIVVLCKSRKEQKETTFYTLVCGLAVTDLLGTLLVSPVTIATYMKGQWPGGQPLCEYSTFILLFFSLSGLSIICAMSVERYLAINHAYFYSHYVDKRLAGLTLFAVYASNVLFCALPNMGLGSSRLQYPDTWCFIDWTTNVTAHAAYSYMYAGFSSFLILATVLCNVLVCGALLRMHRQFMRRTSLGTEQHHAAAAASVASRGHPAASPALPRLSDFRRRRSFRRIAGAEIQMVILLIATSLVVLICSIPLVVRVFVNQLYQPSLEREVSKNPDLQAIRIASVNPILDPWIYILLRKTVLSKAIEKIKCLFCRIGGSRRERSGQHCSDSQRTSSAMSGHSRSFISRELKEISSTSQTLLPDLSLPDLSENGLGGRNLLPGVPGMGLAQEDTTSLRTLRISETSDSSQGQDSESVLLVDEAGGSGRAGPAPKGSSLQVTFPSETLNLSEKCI
T1 sequence (P43088 whole entry): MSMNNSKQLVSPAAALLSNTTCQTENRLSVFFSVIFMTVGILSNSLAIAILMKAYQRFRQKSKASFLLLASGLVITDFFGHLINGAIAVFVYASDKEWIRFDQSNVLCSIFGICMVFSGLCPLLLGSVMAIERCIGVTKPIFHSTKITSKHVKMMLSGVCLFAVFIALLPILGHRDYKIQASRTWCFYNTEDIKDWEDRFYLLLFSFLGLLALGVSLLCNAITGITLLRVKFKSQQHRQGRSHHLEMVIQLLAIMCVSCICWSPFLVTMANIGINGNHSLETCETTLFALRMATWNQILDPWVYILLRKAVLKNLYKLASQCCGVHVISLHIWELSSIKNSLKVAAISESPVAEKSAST

Row | Structure (SMILES) | pEC50 [1] | pEC50 [2] | pEC50 [3] | pEC50 [4] | pEC50 [5]
1 | C=CC1CC(O)[C@H](C/C=C\CCCC(=O)NCCO)[C@H]1/C=C/[C@@H](O)CCc1cc(Br)c(C)s1 (stereo partly drawn) [Compound 12H, (Z)-7-{(1R,2S)-2-[(E)-(S)-5-(4-Bromo-5-methyl-thiophen-2-yl)-3-hydroxy-pent-1-enyl]-5-hydroxy-3-vinyl-cyclopentyl}-hept-5-enoic acid (2-hydroxy-ethyl)-amide] | < 5.00 | < 5.00 | < 5.00 | < 5.00 | –
2 | CCNC(=O)CCC/C=C\C[C@H]1C(O)CC(C)[C@@H]1/C=C/[C@@H](O)CCc1cc(Br)c(C)s1 (stereo partly drawn) [Compound 15H, (Z)-7-{(1R,2R)-2-[(E)-(S)-5-(4-Bromo-5-methyl-thiophen-2-yl)-3-hydroxy-pent-1-enyl]-5-hydroxy-3-methyl-cyclopentyl}-hept-5-enoic acid ethylamide] | < 5.00 | < 5.00 | – | < 5.00 | –
3 | C=CC1CC(O)[C@H](C/C=C\CCCC(N)=O)[C@H]1/C=C/[C@@H](O)CCc1cc(Br)c(C)s1 (stereo partly drawn) [Compound 13L, (Z)-7-{(1R,2S)-2-[(E)-(S)-5-(4-Bromo-5-methyl-thiophen-2-yl)-3-hydroxy-pent-1-enyl]-5-hydroxy-3-vinyl-cyclopentyl}-hept-5-enoic acid amide] | – | – | – | < 5.00 | –
4 | Cc1sc(CC[C@H](O)/C=C/[C@H]2CCC(O)[C@@H]2C/C=C\CCCC(N)=O)cc1Br (stereo partly drawn) [Compound 23H, (Z)-7-{(1R,2R)-2-[(E)-(S)-5-(4-Bromo-5-methyl-thiophen-2-yl)-3-hydroxy-pent-1-enyl]-5-hydroxy-cyclopentyl}-hept-5-enoic acid amide] | < 5.00 | 5.67 | – | – | –
5 | Cc1sc(CC[C@H](O)/C=C/[C@H]2C(C)CC(O)[C@@H]2C/C=C\CCCC(N)=O)cc1Br (stereo partly drawn) [Compound 17L, (Z)-7-{(1R,2R)-2-[(E)-(S)-5-(4-Bromo-5-methyl-thiophen-2-yl)-3-hydroxy-pent-1-enyl]-5-hydroxy-3-methyl-cyclopentyl}-hept-5-enoic acid amide] | < 5.00 | – | – | – | –
6 | Cc1sc(CC[C@H](O)/C=C/[C@H]2C(C)CC(O)[C@@H]2C/C=C\CCCC(=O)NCCO)cc1Br (stereo partly drawn) [Compound 16L, (Z)-7-{(1R,2R)-2-[(E)-(S)-5-(4-Bromo-5-methyl-thiophen-2-yl)-3-hydroxy-pent-1-enyl]-5-hydroxy-3-methyl-cyclopentyl}-hept-5-enoic acid (2-hydroxy-ethyl)-amide] | – | – | – | < 5.00 | –
7 | CCNC(=O)CCC/C=C\C[C@H]1C(O)CC(C)[C@@H]1/C=C/[C@@H](O)CCc1cc(Br)c(C)s1 (stereo partly drawn) [Compound 15L, (Z)-7-{(1R,2R)-2-[(E)-(S)-5-(4-Bromo-5-methyl-thiophen-2-yl)-3-hydroxy-pent-1-enyl]-5-hydroxy-3-methyl-cyclopentyl}-hept-5-enoic acid ethylamide] | – | – | – | < 5.00 | –
8 | CCNC(=O)CCC/C=C\C[C@H]1C(O)CC[C@@H]1/C=C/[C@@H](O)CCc1cc(Br)c(C)s1 (stereo partly drawn) [Compound 21H, (Z)-7-{(1R,2R)-2-[(E)-(S)-5-(4-Bromo-5-methyl-thiophen-2-yl)-3-hydroxy-pent-1-enyl]-5-hydroxy-cyclopentyl}-hept-5-enoic acid ethylamide] | < 5.00 | < 5.00 | – | – | –

Results, then the compound that gave them:

Row | pEC50 [1] | pEC50 [2] | pEC50 [3] | pEC50 [4] | pEC50 [5] | Structure (SMILES)
9 | < 5.00 | < 5.00 | – | – | – | Cc1sc(CC[C@H](O)/C=C/[C@H]2CCC(O)[C@@H]2C/C=C\CCCC(=O)NCCO)cc1Br (stereo partly drawn) [Compound 22H, (Z)-7-{(1R,2R)-2-[(E)-(S)-5-(4-Bromo-5-methyl-thiophen-2-yl)-3-hydroxy-pent-1-enyl]-5-hydroxy-cyclopentyl}-hept-5-enoic acid (2-hydroxy-ethyl)-amide]
10 | < 5.00 | – | – | – | – | C=CC1CC(O)[C@H](C/C=C\CCCC(=O)NCC)[C@H]1/C=C/[C@@H](O)CCc1cc(Br)c(C)s1 (stereo partly drawn) [Compound 14H, (Z)-7-{(1R,2S)-2-[(E)-(S)-5-(4-Bromo-5-methyl-thiophen-2-yl)-3-hydroxy-pent-1-enyl]-5-hydroxy-3-vinyl-cyclopentyl}-hept-5-enoic acid ethylamide]
11 | < 5.00 | < 5.00 | < 5.00 | – | – | C=CC1CC(O)[C@H](C/C=C\CCCC(=O)NCCO)[C@H]1/C=C/[C@@H](O)CCc1cc(Br)c(C)s1 (stereo partly drawn) [Compound 12L, (Z)-7-{(1R,2S)-2-[(E)-(S)-5-(4-Bromo-5-methyl-thiophen-2-yl)-3-hydroxy-pent-1-enyl]-5-hydroxy-3-vinyl-cyclopentyl}-hept-5-enoic acid (2-hydroxy-ethyl)-amide]
12 | ≤ 5.00 | 5.71 | – | < 5.00 | – | Cc1sc(CC[C@H](O)/C=C/[C@H]2C(C)CC(O)[C@@H]2C/C=C\CCCC(N)=O)cc1Br (stereo partly drawn) [Compound 17H, (Z)-7-{(1R,2R)-2-[(E)-(S)-5-(4-Bromo-5-methyl-thiophen-2-yl)-3-hydroxy-pent-1-enyl]-5-hydroxy-3-methyl-cyclopentyl}-hept-5-enoic acid amide]
13 | ≤ 5.00 | 5.86 | – | – | – | Cc1sc(CC[C@H](O)/C=C/[C@H]2C(C)CC(O)[C@@H]2C/C=C\CCCC(=O)NCCO)cc1Br (stereo partly drawn) [Compound 16H, (Z)-7-{(1R,2R)-2-[(E)-(S)-5-(4-Bromo-5-methyl-thiophen-2-yl)-3-hydroxy-pent-1-enyl]-5-hydroxy-3-methyl-cyclopentyl}-hept-5-enoic acid (2-hydroxy-ethyl)-amide]
14 | 5.67 | – | – | – | – | CCNC(=O)CCC/C=C\C[C@@H]1[C@@H](/C=C/[C@@H](O)CCc2cc(Br)c(C)s2)[C@H](O)C[C@@H]1O [Control, reference compound]
15 | 6.23 | 5.60 | < 5.00 | – | 5.15 | C=CC1CC(O)[C@H](C/C=C\CCCC(N)=O)[C@H]1/C=C/[C@@H](O)CCc1cc(Br)c(C)s1 (stereo partly drawn) [Compound 13H, (Z)-7-{(1R,2S)-2-[(E)-(S)-5-(4-Bromo-5-methyl-thiophen-2-yl)-3-hydroxy-pent-1-enyl]-5-hydroxy-3-vinyl-cyclopentyl}-hept-5-enoic acid amide]
16 | 5.27 | < 5.00 | – | – | < 5.00 | CCC1CC(O)[C@H](C/C=C\CCCC(N)=O)[C@H]1/C=C/[C@@H](O)CCc1cc(Br)c(C)s1 (stereo partly drawn) [Compound 20H, (Z)-7-{(1R,2R)-2-[(E)-(S)-5-(4-Bromo-5-methyl-thiophen-2-yl)-3-hydroxy-pent-1-enyl]-3-ethyl-5-hydroxy-cyclopentyl}-hept-5-enoic acid amide]
